One data set concerns ovulation. The data set can be described thus: Ovulation inhibition test on rats, subcutaneous application, determined by tubal inspection. The data set is classed as in vivo. The method, then:
OVULATION INHIBITION IN RATS AFTER
SUBCUTANEOUS APPLICATION
The ovulation inhibition was determined by tubal inspection.

A further data set is described as follows: Androgenic side effects. To be noted: in words, relative to B.

With `C=C1C[C@@]2(CC)[C@@H](CC[C@@]2(O)C#CCl)[C@@H]2CCC3=CC(=O)CC[C@@H]3[C@@H]12` [A, 17α-chloroethynyl-17β-hydroxy-18-methyl-11-methylene-4-estren-3-one], the “Ovulation inhibition in rats after subcutaneous application (% inhibition)” value with ovulation (dose 0.03 mg) worked out at 83%; in the data set on ovulation (dose 0.1 mg) it was 100%. Further, in the data set on ovulation (seen from the table), the “Ovulation inhibition strength relative to ethynyl compound B” value is reported as “at least three times stronger than ethynyl compound B”. In the data set “Androgenic side effects”, the “Androgenic side effects compared with B” value is given as “less androgenic side effects than B”.

Consider `C#C[C@]1(O)CC[C@H]2[C@@H]3CCC4=CC(=O)CC[C@@H]4[C@H]3C(=C)C[C@@]21CC` [B, 17α-ethynyl-17β-hydroxy-18-methyl-11-methylene-4-estren-3-one, reference compound], for which the “Ovulation inhibition in rats after subcutaneous application (% inhibition)” value in the data set with ovulation (dose 0.03 mg) is given as 0%; in the data set on ovulation (dose 0.1 mg) it was 100%.

The values are drawn from patent publication US4277468A, “11-Methylene steroids, their preparation and pharmaceutical preparations containing them” (Schering Aktiengesellschaft, priority 1979, dated 1981).
